Measurements from patent US20060110803A1 (Crucell Holland B.V., priority 2003, published 2006).

What follows are sequences tested on antibodies in sera of individuals which have been and/or are infected by SARS-CoV (SARS-green, SARS-yellow, 1a, 1b, 2, 6, 37, 62, London).
Format: binding, human

With QPELDSFKEELDKYF [SEQ ID NO:1140] as the sequence, how does the “recognition by sera of SARS-CoV infected individuals, looped/cyclic form” value (shortened to “recognition by sera … looped/cyclic form”) read?
The value was “recognized in looped/cyclic form”.

How did the “recognition by sera … looped/cyclic form” value turn out when RGVYYPDEIFRSDTL [SEQ ID NO:77] was run?
The value was “recognized in looped/cyclic form”.

For RLDKVEAEVQIDRLI [SEQ ID NO:993], which “recognition by sera … looped/cyclic form” value is on record?
Its value is “recognized in looped/cyclic form”.

RLNEVAKNLNESLID [SEQ ID NO:1181] was tested. Which “recognition by sera … looped/cyclic form” value did it give?
Its value is “recognized in looped/cyclic form”.

How did the “recognition by sera … looped/cyclic form” value turn out when SGSDLDRCTTFDDVQ [SEQ ID NO:51] was run?
The value was “recognized in looped/cyclic form”.

SGTATAGWTFGAGAA [SEQ ID NO:889] was tested. Which “recognition by sera of SARS-CoV infected individuals, linear form” value (from here on “recognition by sera … linear form”) did it give?
The value was “recognized in linear form”.

Which “recognition by sera … looped/cyclic form” value does the source give for SLTTTSTALGKLQDV [SEQ ID NO:947] here?
Its value is “recognized in looped/cyclic form”.

For SMRGVYYPDEIFRSD [SEQ ID NO:75], which “recognition by sera … looped/cyclic form” value is on record?
Its value is “recognized in looped/cyclic form”.

How did the “recognition by sera … linear form” value turn out when SNVPFSPDGKPCTPP [SEQ ID NO:484] was run?
The value was “recognized in linear form”.

With SPDGKPCTPPALNCY [SEQ ID NO:489] as the sequence, how does the “recognition by sera … linear form” value read?
Its value is “recognized in linear form”.

Which “recognition by sera … looped/cyclic form” value does the source give for SPDVDLGDISGINAS [SEQ ID NO:1157] here?
The value was “recognized in looped/cyclic form”.

Which “recognition by sera … looped/cyclic form” value does the source give for SRLDKVEAEVQIDRL [SEQ ID NO:992] here?
The value was “recognized in looped/cyclic form”.

SSMRGVYYPDEIFRS [SEQ ID NO:74] was tested. Which “recognition by sera … looped/cyclic form” value did it give?
Its value is “recognized in looped/cyclic form”.

With SVDCNMYICGDSTEC [SEQ ID NO:745] as the sequence, how does the “recognition by sera … linear form” value read?
The value was “recognized in linear form”.

TAGWTFGAGAALQIP [SEQ ID NO:893] was tested. Which “recognition by sera … linear form” value did it give?
Its value is “recognized in linear form”.

TATAGWTFGAGAALQ [SEQ ID NO:891] was tested. Which “recognition by sera … linear form” value did it give?
The value was “recognized in linear form”.

How did the “recognition by sera … looped/cyclic form” value turn out when TEVMPVSMAKTSVDC [SEQ ID NO:734] was run?
The value was “recognized in looped/cyclic form”.

TLTSGSDLDRCTTFD [SEQ ID NO:48] was tested. Which “recognition by sera … looped/cyclic form” value did it give?
Its value is “recognized in looped/cyclic form”.

Which “recognition by sera … looped/cyclic form” value does the source give for TPPALNCYWPLNDYG [SEQ ID NO:496] here?
Its value is “recognized in looped/cyclic form”.

With TQHTSSMRGVYYPDE [SEQ ID NO:70] as the sequence, how does the “recognition by sera … looped/cyclic form” value read?
Its value is “recognized in looped/cyclic form”.

With TSGSDLDRCTTFDDV [SEQ ID NO:50] as the sequence, how does the “recognition by sera … looped/cyclic form” value read?
The value was “recognized in looped/cyclic form”.

For TSPDVDLGDISGINA [SEQ ID NO:1156], which “recognition by sera … looped/cyclic form” value is on record?
Its value is “recognized in looped/cyclic form”.

With TSSMRGVYYPDEIFR [SEQ ID NO:73] as the sequence, how does the “recognition by sera … looped/cyclic form” value read?
Its value is “recognized in looped/cyclic form”.

For TSVDCNMYICGDSTE [SEQ ID NO:744], which “recognition by sera … linear form” value is on record?
Its value is “recognized in linear form”.

Which “recognition by sera … looped/cyclic form” value does the source give for TTEVMPVSMAKTSVD [SEQ ID NO:733] here?
The value was “recognized in looped/cyclic form”.

TTTSTALGKLQDVVN [SEQ ID NO:949] was tested. Which “recognition by sera … looped/cyclic form” value did it give?
The value was “recognized in looped/cyclic form”.

With TVYDPLQPELDSFKE [SEQ ID NO:1134] as the sequence, how does the “recognition by sera … looped/cyclic form” value read?
The value was “recognized in looped/cyclic form”.

With VAKNLNESLIDLQEL [SEQ ID NO:1185] as the sequence, how does the “recognition by sera … looped/cyclic form” value read?
The value was “recognized in looped/cyclic form”.

Which “recognition by sera … linear form” value does the source give for VDCNMYICGDSTECA [SEQ ID NO:746] here?
Its value is “recognized in linear form”.

Which “recognition by sera … looped/cyclic form” value does the source give for VNQNAQALNTLVKQL [SEQ ID NO:962] here?
The value was “recognized in looped/cyclic form”.

With VPFSPDGKPCTPPAL [SEQ ID NO:486] as the sequence, how does the “recognition by sera … linear form” value read?
The value was “recognized in linear form”.

How did the “recognition by sera … linear form” value turn out when VSGTATAGWTFGAGA [SEQ ID NO:888] was run?
Its value is “recognized in linear form”.

Which “recognition by sera … looped/cyclic form” value does the source give for VVNQNAQALNTLVKQ [SEQ ID NO:961] here?
The value was “recognized in looped/cyclic form”.

For VWLGFIAGLIAIVMV [SEQ ID NO:1212], which “recognition by sera … looped/cyclic form” value is on record?
Its value is “recognized in looped/cyclic form”.

For VYDPLQPELDSFKEE [SEQ ID NO:1135], which “recognition by sera … looped/cyclic form” value is on record?
The value was “recognized in looped/cyclic form”.

Which “recognition by sera … looped/cyclic form” value does the source give for VYYPDEIFRSDTLYL [SEQ ID NO:79] here?
The value was “recognized in looped/cyclic form”.

With WLGFIAGLIAIVMVT [SEQ ID NO:1213] as the sequence, how does the “recognition by sera … looped/cyclic form” value read?
Its value is “recognized in looped/cyclic form”.

For WYVWLGFIAGLIAIV [SEQ ID NO:1210], which “recognition by sera … looped/cyclic form” value is on record?
Its value is “recognized in looped/cyclic form”.

With YDPLQPELDSFKEEL [SEQ ID NO:1136] as the sequence, how does the “recognition by sera … looped/cyclic form” value read?
Its value is “recognized in looped/cyclic form”.

For YFKNHTSPDVDLGDI [SEQ ID NO:1151], which “recognition by sera … looped/cyclic form” value is on record?
Its value is “recognized in looped/cyclic form”.

Which “recognition by sera … linear form” value does the source give for YICGDSTECANLLLQ [SEQ ID NO:751] here?
Its value is “recognized in linear form”.

YVWLGFIAGLIAIVM [SEQ ID NO:1211] was tested. Which “recognition by sera … looped/cyclic form” value did it give?
Its value is “recognized in looped/cyclic form”.

These sequences were tested on antibodies in rabbit serum obtained by immunizing a rabbit with the SARS-CoV strain Frankfurt 1.
Format: binding

For CDNPFFAVSKPMGTQ [SEQ ID NO:172], which “recognition by rabbit serum” value is on record?
Its value is “recognized by the rabbit serum”.

How did the “recognition by rabbit serum” value turn out when CTTFDDVQAPNYTQH [SEQ ID NO:58] was run?
Its value is “recognized by the rabbit serum”.

Which “recognition by rabbit serum” value does the source give for DDVQAPNYTQHTSSM [SEQ ID NO:62] here?
Its value is “recognized by the rabbit serum”.

For DFTDSVRDPKTSEIL [SEQ ID NO:585], which “recognition by rabbit serum” value is on record?
The value was “recognized by the rabbit serum”.

DNPFFAVSKPMGTQT [SEQ ID NO:173] was tested. Which “recognition by rabbit serum” value did it give?
The value was “recognized by the rabbit serum”.

DRCTTFDDVQAPNYT [SEQ ID NO:56] was tested. Which “recognition by rabbit serum” value did it give?
Its value is “recognized by the rabbit serum”.

With DSVRDPKTSEILDIS [SEQ ID NO:588] as the sequence, how does the “recognition by rabbit serum” value read?
Its value is “recognized by the rabbit serum”.

With DVQAPNYTQHTSSMR [SEQ ID NO:63] as the sequence, how does the “recognition by rabbit serum” value read?
The value was “recognized by the rabbit serum”.

How did the “recognition by rabbit serum” value turn out when FDDVQAPNYTQHTSS [SEQ ID NO:61] was run?
Its value is “recognized by the rabbit serum”.

How did the “recognition by rabbit serum” value turn out when FMLKYDENGTITDAV [SEQ ID NO:290] was run?
The value was “recognized by the rabbit serum”.

For FTDSVRDPKTSEILD [SEQ ID NO:586], which “recognition by rabbit serum” value is on record?
The value was “recognized by the rabbit serum”.

GIGYQPYRVVVLSFE [SEQ ID NO:516] was tested. Which “recognition by rabbit serum” value did it give?
The value was “recognized by the rabbit serum”.

Which “recognition by rabbit serum” value does the source give for GYQPYRVVVLSFELL [SEQ ID NO:518] here?
Its value is “recognized by the rabbit serum”.

IGYQPYRVVVLSFEL [SEQ ID NO:517] was tested. Which “recognition by rabbit serum” value did it give?
Its value is “recognized by the rabbit serum”.

How did the “recognition by rabbit serum” value turn out when KYDENGTITDAVDCS [SEQ ID NO:293] was run?
The value was “recognized by the rabbit serum”.

For LDRCTTFDDVQAPNY [SEQ ID NO:55], which “recognition by rabbit serum” value is on record?
The value was “recognized by the rabbit serum”.

With LKYDENGTITDAVDC [SEQ ID NO:292] as the sequence, how does the “recognition by rabbit serum” value read?
The value was “recognized by the rabbit serum”.

MLKYDENGTITDAVD [SEQ ID NO:291] was tested. Which “recognition by rabbit serum” value did it give?
The value was “recognized by the rabbit serum”.

How did the “recognition by rabbit serum” value turn out when NPFFAVSKPMGTQTH [SEQ ID NO:174] was run?
The value was “recognized by the rabbit serum”.

For PTTFMLKYDENGTIT [SEQ ID NO:287], which “recognition by rabbit serum” value is on record?
Its value is “recognized by the rabbit serum”.

Which “recognition by rabbit serum” value does the source give for QAPNYTQHTSSMRGV [SEQ ID NO:65] here?
The value was “recognized by the rabbit serum”.
